Values joined by “and” are separate entries in the source; they are usually repeats but may differ in a detail not shown here. Equal entries are not always repeated. Toxic doses and inconclusive results are not listed. Rule for the calls: active = survival T/C of 150% or more; inactive = T/C below 125% in these data.
Test system: CD2F1 mice, L1210 leukemia ip, survival T/C
Test: NCI In Vivo Anticancer Drug Screen. Data for tumor model L1210 Leukemia (intraperitoneal) in CD2F1 (CDF1) mice
Conditions: higher = longer survival
Outline: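 Tumor-bearing mice (transplanted tumor) were split into treated and vehicle control groups, and the measured endpoint of each treated group was divided by that of its vehicle controls.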

[1] = endpoint: mean survival time, dose: 100.0 mg/kg/injection, schedule: Q04DX003 (ip), vehicle: saline with Tween-80
[2] = endpoint: mean survival time, dose: 200.0 mg/kg/injection, schedule: Q04DX003 (ip), vehicle: saline with Tween-80
[3] = endpoint: mean survival time, dose: 100.0 mg/kg/injection, schedule: Q01DX009 (ip), vehicle: saline with Tween-80
[4] = endpoint: mean survival time, dose: 200.0 mg/kg/injection, schedule: Q01DX009 (ip), vehicle: saline with Tween-80
[5] = endpoint: mean survival time, dose: 400.0 mg/kg/injection, schedule: Q01DX009 (ip), vehicle: saline with Tween-80
[6] = endpoint: mean survival time, dose: 400.0 mg/kg/injection, schedule: Q04DX003 (ip), vehicle: saline with Tween-80
[7] = endpoint: mean survival time, dose: 100.0 mg/kg/injection, schedule: Q04DX002 (ip), vehicle: saline with Tween-80
[8] = endpoint: mean survival time, dose: 200.0 mg/kg/injection, schedule: Q04DX002 (ip), vehicle: saline with Tween-80
[9] = endpoint: mean survival time, dose: 400.0 mg/kg/injection, schedule: Q04DX002 (ip), vehicle: saline with Tween-80

Measured: T/C

O=C1c2ccccc2C(=O)N1OC1CCCCO1 (centres undefined)
inactive: endpoint: mean survival time, dose: 100.0 mg/kg/injection, schedule: Q04DX003 (ip), vehicle: Klucel (hydroxypropylcellulose) (HPC) 92 % of control | endpoint: mean survival time, dose: 200.0 mg/kg/injection, schedule: Q04DX003 (ip), vehicle: Klucel (hydroxypropylcellulose) (HPC) 102 % of control | endpoint: mean survival time, dose: 400.0 mg/kg/injection, schedule: Q04DX003 (ip), vehicle: Klucel (hydroxypropylcellulose) (HPC) 94 % of control

Cc1cccc(CCc2cccc(C)n2)n1
inactive: endpoint: mean survival time, dose: 100.0 mg/kg/injection, schedule: Q04DX003 (ip), vehicle: saline 103 % of control | endpoint: mean survival time, dose: 200.0 mg/kg/injection, schedule: Q04DX003 (ip), vehicle: saline 103 % of control | endpoint: mean survival time, dose: 400.0 mg/kg/injection, schedule: Q04DX003 (ip), vehicle: saline 103 % of control

CCCCCCCC(=O)N1C=CN(C(=O)CCCCCCC)C1
inactive: endpoint: mean survival time, dose: 75.0 mg/kg/injection, schedule: Q04DX003 (ip), vehicle: saline 104 % of control | endpoint: mean survival time, dose: 150.0 mg/kg/injection, schedule: Q04DX003 (ip), vehicle: saline 98 % of control | endpoint: mean survival time, dose: 300.0 mg/kg/injection, schedule: Q04DX003 (ip), vehicle: saline 98 % of control

O/N=C\c1ccc(/C=N/O)cc1
inactive: [1] 94 % of control | [2] 92 % of control

NC(=O)c1[nH]nc(C2OC(CO)C(O)C2O)c1O (centres undefined)
inactive: endpoint: mean survival time, dose: 0.25 mg/kg/injection, schedule: Q04DX003 (ip), vehicle: saline 105 % of control | endpoint: mean survival time, dose: 0.5 mg/kg/injection, schedule: Q04DX003 (ip), vehicle: saline 97 % of control | endpoint: mean survival time, dose: 1.0 mg/kg/injection, schedule: Q04DX003 (ip), vehicle: saline 96 % of control | endpoint: mean survival time, dose: 2.0 mg/kg/injection, schedule: Q04DX003 (ip), vehicle: saline 97 % of control | endpoint: median survival time, dose: 0.25 mg/kg/injection, schedule: Q01DX009 (ip), vehicle: saline 98 % of control | endpoint: median survival time, dose: 0.5 mg/kg/injection, schedule: Q01DX009 (ip), vehicle: saline 111 % of control | endpoint: median survival time, dose: 1.0 mg/kg/injection, schedule: Q01DX009 (ip), vehicle: saline 121 % of control | endpoint: median survival time, dose: 1.0 mg/kg/injection, schedule: Q04DX003 (ip), vehicle: saline 102 % of control | endpoint: median survival time, dose: 1.88 mg/kg/injection, schedule: Q04DX003 (ip), vehicle: saline 117 % of control | endpoint: median survival time, dose: 2.0 mg/kg/injection, schedule: Q01DX009 (ip), vehicle: saline 120 % of control | endpoint: median survival time, dose: 3.75 mg/kg/injection, schedule: Q04DX003 (ip), vehicle: saline 110 % of control | endpoint: median survival time, dose: 4.0 mg/kg/injection, schedule: Q01DX009 (ip), vehicle: saline 110 % of control | endpoint: median survival time, dose: 7.5 mg/kg/injection, schedule: Q04DX003 (ip), vehicle: saline 116 % of control | endpoint: median survival time, dose: 8.0 mg/kg/injection, schedule: Q01DX009 (ip), vehicle: saline 88 % of control | endpoint: median survival time, dose: 8.0 mg/kg/injection, schedule: Q04DX003 (ip), vehicle: saline 117 % of control and 120 % of control | endpoint: median survival time, dose: 15.0 mg/kg/injection, schedule: Q04DX003 (ip), vehicle: saline 118 % of control | endpoint: median survival time, dose: 16.0 mg/kg/injection, schedule: Q01DX009 (ip), vehicle: saline 101 % of control | endpoint: median survival time, dose: 16.0 mg/kg/injection, schedule: Q04DX003 (ip), vehicle: saline 111 % of control | endpoint: median survival time, dose: 30.0 mg/kg/injection, schedule: Q04DX003 (ip), vehicle: saline 97 % of control | endpoint: median survival time, dose: 32.0 mg/kg/injection, schedule: Q04DX003 (ip), vehicle: saline 118 % of control

CC1(C)/C(=C/c2ccccc2)C(=O)c2ccccc21
inactive: [3] 100 % of control | [1] 102 % of control | [4] 100 % of control | [2] 92 % of control | [5] 94 % of control | [6] 102 % of control

COc1ccc(CCNC2c3ccccc3C=Cc3ccccc32)cc1OC
inactive: endpoint: mean survival time, dose: 50.0 mg/kg/injection, schedule: Q01DX001 (ip), vehicle: saline with Tween-80 107 % of control | endpoint: mean survival time, dose: 100.0 mg/kg/injection, schedule: Q01DX001 (ip), vehicle: saline 91 % of control | endpoint: mean survival time, dose: 200.0 mg/kg/injection, schedule: Q01DX001 (ip), vehicle: saline 100 % of control

C[C@@H]1C[C@H]2CC[C@H](O2)[C@H](C)C(=O)O[C@@H](C)C[C@@H]2CC[C@@H](O2)[C@@H](C)C(=O)O[C@H](C)C[C@H]2CC[C@H](O2)[C@H](C)C(=O)O[C@@H](C)C[C@@H]2CC[C@@H](O2)[C@@H](C)C(=O)O1
inactive: endpoint: mean survival time, dose: 8.0 mg/kg/injection, schedule: Q01DX008 (iv), vehicle: saline 98 % of control | endpoint: mean survival time, dose: 16.0 mg/kg/injection, schedule: Q01DX008 (iv), vehicle: saline 98 % of control | endpoint: mean survival time, dose: 32.0 mg/kg/injection, schedule: Q01DX008 (iv), vehicle: saline 95 % of control

NC(=O)c1cc(=O)[nH]o1
inactive: [3] 102 % of control | [4] 96 % of control | [5] 107 % of control

Cc1ccc(S(=O)(=O)OCCCCCOS(=O)(=O)c2ccc(C)cc2)cc1
inactive: [3] 100 % of control | [1] 100 % of control | [4] 100 % of control | [2] 100 % of control | [5] 100 % of control | [6] 97 % of control

CC(C)(O)C#CC(C)(C)OC(O)C(Cl)(Cl)Cl (centres undefined)
inactive: [7] 96 % of control | [8] 101 % of control | [9] 93 % of control

CCCCOC(=O)c1ccc(NC(=O)Nc2ccccc2OC)cc1
inactive: [3] 97 % of control | [1] 108 % of control | [4] 91 % of control | [2] 103 % of control | [5] 92 % of control | [6] 88 % of control

CC(C)CCC(=O)/C=C\c1ccccc1
inactive: endpoint: mean survival time, dose: 50.0 mg/kg/injection, schedule: Q04DX002 (ip), vehicle: saline with Tween-80 104 % of control | [7] 96 % of control | [8] 86 % of control | [9] 86 % of control

CSc1cc(C)[o+]c(C)c1
inactive: endpoint: mean survival time, dose: 12.5 mg/kg/injection, schedule: Q01DX009 (ip), vehicle: Klucel (hydroxypropylcellulose) (HPC) 94 % of control | endpoint: mean survival time, dose: 25.0 mg/kg/injection, schedule: Q01DX009 (ip), vehicle: Klucel (hydroxypropylcellulose) (HPC) 97 % of control | endpoint: mean survival time, dose: 50.0 mg/kg/injection, schedule: Q01DX009 (ip), vehicle: Klucel (hydroxypropylcellulose) (HPC) 108 % of control | endpoint: mean survival time, dose: 100.0 mg/kg/injection, schedule: Q01DX009 (ip), vehicle: Klucel (hydroxypropylcellulose) (HPC) 113 % of control | endpoint: mean survival time, dose: 200.0 mg/kg/injection, schedule: Q01DX009 (ip), vehicle: Klucel (hydroxypropylcellulose) (HPC) 117 % of control

N#CCCN=C1C=CC(=C(c2ccc(NCCC#N)cc2)c2ccc(Cl)cc2Cl)C=C1
inactive: [7] 117 % of control

O=C(O)c1ccccc1C(=O)CC(O)(C(F)(F)F)C(F)(F)F
inactive: [1] 101 % of control | [2] 97 % of control | [6] 102 % of control

N#CCCCCCN=[N+]=[N-]
inactive: endpoint: mean survival time, dose: 75.0 mg/kg/injection, schedule: Q01DX001 (ip), vehicle: saline 98 % of control | endpoint: mean survival time, dose: 150.0 mg/kg/injection, schedule: Q01DX001 (ip), vehicle: saline 101 % of control

CCOC(=O)C(=O)Nc1ccc(Cl)cc1
inactive: endpoint: mean survival time, dose: 100.0 mg/kg/injection, schedule: Q01DX001 (ip), vehicle: saline with Tween-80 94 % of control | endpoint: mean survival time, dose: 200.0 mg/kg/injection, schedule: Q01DX001 (ip), vehicle: saline with Tween-80 97 % of control | endpoint: mean survival time, dose: 400.0 mg/kg/injection, schedule: Q01DX001 (ip), vehicle: saline with Tween-80 95 % of control

NCC(OC1CCCCC1)C(Cl)(Cl)Cl (centres undefined)
inactive: [1] 101 % of control | [2] 93 % of control

Cn1c(=O)c2[nH]c(-c3ccc(Cl)cc3)nc2n(C)c1=O
inactive: endpoint: mean survival time, dose: 12.5 mg/kg/injection, schedule: Q01DX005 (ip), vehicle: other 89 % of control | endpoint: mean survival time, dose: 25.0 mg/kg/injection, schedule: Q01DX005 (ip), vehicle: other 89 % of control | endpoint: mean survival time, dose: 50.0 mg/kg/injection, schedule: Q01DX005 (ip), vehicle: other 93 % of control | endpoint: mean survival time, dose: 100.0 mg/kg/injection, schedule: Q01DX005 (ip), vehicle: other 89 % of control | endpoint: mean survival time, dose: 200.0 mg/kg/injection, schedule: Q01DX005 (ip), vehicle: other 95 % of control

CCS(=O)(=O)c1c(C(N)=O)ncn1C1OC(CO)C(O)C1O (centres undefined)
inactive: endpoint: median survival time, dose: 9.13 mg/kg/injection, schedule: Q01DX005 (ip), vehicle: saline 91 % of control | endpoint: median survival time, dose: 18.25 mg/kg/injection, schedule: Q01DX005 (ip), vehicle: saline 102 % of control | endpoint: median survival time, dose: 36.5 mg/kg/injection, schedule: Q01DX005 (ip), vehicle: saline 102 % of control | endpoint: median survival time, dose: 73.0 mg/kg/injection, schedule: Q01DX005 (ip), vehicle: saline 102 % of control | endpoint: median survival time, dose: 146.0 mg/kg/injection, schedule: Q01DX005 (ip), vehicle: saline 100 % of control

CC(C)/C(=N\Nc1ccc([N+](=O)[O-])cc1[N+](=O)[O-])c1ccccc1
inactive: [3] 97 % of control | [4] 101 % of control | [5] 103 % of control
